Experimental data: paper PMC9351465, “Mechanism-based heparanase inhibitors reduce cancer metastasis in vivo” (Proceedings of the National Academy of Sciences of the …, 2022)
Several values for one entry are separate records, joined by “and”; a condition that tells them apart may be missing. Equal entries are not always repeated.

Key:
HPSE [1] = target: T1, HPSE (Homo sapiens, UniProt Q9Y251); test: colorimetric fondaparinux cleavage assay; type: biochemical; conditions: 200 ng/mL HPSE, 100 µM fondaparinux, pH 5.0, 37°C, 18 h, n = 2; read-out: IC50, HPSE-mediated fondaparinux cleavage
T1 sequence (Q9Y251 158-543 limits assumed): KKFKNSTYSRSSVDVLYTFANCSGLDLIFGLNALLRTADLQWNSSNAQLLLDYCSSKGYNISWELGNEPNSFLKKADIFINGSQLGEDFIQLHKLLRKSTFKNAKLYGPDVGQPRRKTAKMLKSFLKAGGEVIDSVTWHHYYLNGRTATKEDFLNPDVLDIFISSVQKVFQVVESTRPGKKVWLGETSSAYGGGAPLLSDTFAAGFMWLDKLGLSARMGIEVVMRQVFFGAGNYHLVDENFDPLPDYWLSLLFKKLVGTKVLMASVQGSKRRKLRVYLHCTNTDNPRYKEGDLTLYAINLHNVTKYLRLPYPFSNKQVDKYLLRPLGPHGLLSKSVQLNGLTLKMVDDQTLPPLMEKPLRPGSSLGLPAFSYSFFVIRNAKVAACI
T1 sequence (Q9Y251 36-109 limits assumed): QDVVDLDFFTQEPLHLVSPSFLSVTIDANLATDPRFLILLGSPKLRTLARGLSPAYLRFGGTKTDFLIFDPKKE
Experimental: We next investigated the ability of our inhibitors to abrogate HPSE processing of its native oligosaccharide substrates, using a colorimetric assay that detects cleavage of the synthetic HS pentasaccharide fondaparinux ([49]). […]
Fondaparinux cleavage was performed essentially as previously described (9). Briefly, assays were carried out in 96 well plates (Nunc) pretreated with 4% BSA in TBS-T (20 mM Tris pH 7.4, […]
100 µL reactions were set up in 40 mM NaOAc pH 5.0 buffer, containing final concentrations of 200 ng/mL HPSE, 100 µM Fondaparinux (Arixtra) and specified concentrations of inhibitors.
Reactions were incubated at 37°C for 18 h, then quenched with 100 µL 0.1 M NaOH supplemented with 1.7 mM WST-1 tetrazolium salt, and incubated at 60°C for 1 h. Absorbance at 584 nm was read using an ELISA plate reader (BIO-TEK Instruments). All reactions were carried out in technical duplicate. Data were plotted and analyzed using Sigmaplot (Systat). […]

human platelet HPSE = target: T2, human platelet HPSE (Homo sapiens, UniProt Q9Y251); test: cABPP of human platelet lysates, HPSE band
T2 sequence (Q9Y251 158-543 limits assumed): T1 sequence (Q9Y251 158-543 limits assumed)
T2 sequence (Q9Y251 36-109 limits assumed): T1 sequence (Q9Y251 36-109 limits assumed)

HPSE [2] = target: T1, HPSE; test: competitive activity-based protein profiling (cABPP) with ABP 7, recombinant HPSE; conditions: recombinant HPSE 20 nM, 1 h preincubation at 37°C, then 100 nM ABP 7, pH 5.5

What does the source list for `CC(=O)N[C@H]1[C@@H](O[C@H]2[C@H](O)[C@@H](O)[C@@H]3O[C@@H]3[C@@H]2C(=O)O)O[C@H](CO)[C@@H](O)[C@@H]1O` [compound 2]?
IC50 (HPSE [1]): 460 nM and ~460 nM; IC50 (human platelet HPSE; HPSE IC50, human platelet lysates, cABPP, n = 3): ~530 nM and 530 nM; selectivity of HPSE inhibition in platelet lysates (human platelet HPSE; human platelet lysates containing both HPSE and GUSB): highly selective inhibition of human platelet HPSE; HPSE inhibition (cABPP) (HPSE [2]): nanomolar HPSE inhibition potencies
